Like-named read-outs stand apart in the source and are kept apart here.
Tests used:
MaTu-ADR = test: Proliferation assay, MaTu-ADR; type: cell-based; settings: Homo sapiens, 96 h, MaTu-ADR cells, 4 days incubation, crystal violet
Source text: (§1) Cultivated human tumor cells (MCF7, hormone-independent human breast cancer cells, related to ATCC HTB22; NCI-H460, human non-small-cell lung cancer cells, ATCC HTB-177, HCT 116, human colon cancer cells, ATCC CCL-247; DU 145, hormone-independent human prostate cancer cells, ATCC HTB-81; MaTu-MDR, hormone-independent, multiple pharmaceutical agent-resistant human breast cancer cells, EPO-GmbH, Berlin) were flattened out at a density of about 5000 cells/measuring point, depending on the growth rate of the respective cells, in a 96-well multititer plate in 200 μl of the corresponding growth medium. After 24 hours, the cells of one plate (zero-point plate) were colored with crystal violet (see below), while the medium of the other plates was replaced by fresh culture medium (200 μl), to which the test substances were added in various concentrations (0 μm, as well as in the range of 0.01-30 μm; the final concentration of the solvent dimethyl sulfoxide was 0.5%). The cells were incubated for 4 days in the presence of test substances. The cell proliferation was determined by coloring the cells with crystal violet: the cells were fixed by adding 20 μl/measuring point of an 11% glutaric aldehyde solution for 15 minutes at room temperature. After three washing cycles of the fixed cells with water, the plates were dried at room temperature. The cells were colored by adding 100 μl/measuring point of a 0.1% crystal violet solution (the pH was set at 3 by adding acetic acid). After three washing cycles of the colored cells with water, the plates were dried at room temperature. The dye was dissolved by adding 100 μl/measuring point of a 10% acetic acid solution. The extinction was determined by photometry at a wavelength of 595 nm. The change of cell growth, in percent, was calculated by normalization of the measured values to the extinction values of the zero-point plate (=0%) and the extinction of the untreated (0 μm) cells (=100%).

[1] = target: T1, VEGF receptor tyrosine kinase-2 (Homo sapiens, UniProt P35968); test: VEGF Receptor-2 Kinase Assay; type: biochemical; settings: 33P-ATP, 10 minutes at 22° C.
T1 construct: GST; made in house; host or cells: baculovirus-infected insect cells (Sf9)
T1 sequence (P35968 20-1356): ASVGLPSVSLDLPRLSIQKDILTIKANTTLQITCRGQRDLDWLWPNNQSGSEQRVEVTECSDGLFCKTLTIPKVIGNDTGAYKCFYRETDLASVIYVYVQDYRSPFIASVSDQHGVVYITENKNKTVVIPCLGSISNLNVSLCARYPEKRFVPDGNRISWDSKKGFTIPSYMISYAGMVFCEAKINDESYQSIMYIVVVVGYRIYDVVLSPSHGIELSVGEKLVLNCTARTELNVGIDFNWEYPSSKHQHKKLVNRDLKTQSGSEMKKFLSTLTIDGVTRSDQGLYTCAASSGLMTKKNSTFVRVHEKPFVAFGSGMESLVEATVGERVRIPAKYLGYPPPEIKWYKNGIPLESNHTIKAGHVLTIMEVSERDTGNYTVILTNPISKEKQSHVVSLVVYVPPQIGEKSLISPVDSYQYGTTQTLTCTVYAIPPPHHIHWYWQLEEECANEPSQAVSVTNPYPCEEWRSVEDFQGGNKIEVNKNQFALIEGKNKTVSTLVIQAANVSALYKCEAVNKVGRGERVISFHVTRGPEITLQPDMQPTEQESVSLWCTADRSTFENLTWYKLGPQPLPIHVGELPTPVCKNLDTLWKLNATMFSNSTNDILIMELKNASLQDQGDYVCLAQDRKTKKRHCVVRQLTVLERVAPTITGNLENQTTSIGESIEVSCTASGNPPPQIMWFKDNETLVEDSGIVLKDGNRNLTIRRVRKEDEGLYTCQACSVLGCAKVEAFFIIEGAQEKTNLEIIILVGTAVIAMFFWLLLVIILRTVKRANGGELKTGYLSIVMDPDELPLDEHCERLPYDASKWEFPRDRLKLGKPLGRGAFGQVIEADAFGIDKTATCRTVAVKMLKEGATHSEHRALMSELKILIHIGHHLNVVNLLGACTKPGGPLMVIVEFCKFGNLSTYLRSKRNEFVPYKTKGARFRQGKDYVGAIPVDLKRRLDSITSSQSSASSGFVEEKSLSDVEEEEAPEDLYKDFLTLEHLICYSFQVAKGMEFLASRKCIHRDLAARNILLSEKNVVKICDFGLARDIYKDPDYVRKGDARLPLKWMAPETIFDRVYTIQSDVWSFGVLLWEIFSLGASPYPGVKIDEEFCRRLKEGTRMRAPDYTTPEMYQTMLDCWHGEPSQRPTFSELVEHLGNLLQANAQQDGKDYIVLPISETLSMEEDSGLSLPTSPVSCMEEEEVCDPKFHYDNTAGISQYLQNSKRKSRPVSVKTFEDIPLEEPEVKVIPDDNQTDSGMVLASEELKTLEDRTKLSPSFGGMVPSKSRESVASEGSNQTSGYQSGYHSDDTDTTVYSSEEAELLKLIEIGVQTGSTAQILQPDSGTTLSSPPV
Description: VEGF Receptor-2 Kinase Assay
Recombinant VEGF receptor tyrosine kinase-2 was purified as a GST fusion protein from baculovirus-infected insect cells (Sf9). Poly-(Glu4Tyr), which was used as a kinase substrate, was purchased by the Sigma Company.
VEGF receptor tyrosine kinase (90 ng/measuring point) was incubated for 10 minutes at 22° C. in the presence of various concentrations of test substances (0 μm, as well as within the range of 0.001-30 μm) in 30 μl of assay buffer [40 mmol of Tris/HCl, […], 10 mmol of MgCl2, 1 mmol of MnCl2, 3 μmol of Na ortho-vanadate, 1.0 mmol of dithiothreitol, 8 μmol of adenosine trisphosphate (ATP), 27 μg/measuring point of poly-(Glu4Tyr), 0.2 μCi/measuring point of 33P-gamma ATP, 1% dimethyl sulfoxide]. The reaction was stopped by adding EDTA solution (250 mmol, pH 7.0, 10 μl/measuring point).
(§2) From each reaction batch, 10 μl was applied to P30 filter strips (Wallac Company), and non-incorporated 33P-ATP was removed by subjecting the filter strips to three washing cycles for 10 minutes each in 0.5% phosphoric acid. After the filter strips were dried for one hour at 70° C., the filter strips were covered with scintillator strips (MeltiLex™ A, Wallac Company) and baked for one hour at 90° C. The amount of incorporated 33P (substrate phosphorylation) was determined by scintillation measurement in a gamma-radiation measuring device (Wallac).

[2] = tested on: NCI-H460, human non-small-cell lung cancer cells; test: Proliferation assay, H460; type: cell-based; settings: NCI-H460, 96 h, 4 days incubation, crystal violet
Source text: as §1

CDK1/CycB = target: T2, CDK1/CycB (Homo sapiens, UniProt P06493); test: CDK1/CycB Kinase Assay; type: biochemical; settings: histone IIIS substrate, 33P-ATP, 15 minutes at 22° C.
T2 construct: GST; purchased ProQinase GmbH, Freiburg; host or cells: baculovirus-infected insect cells (Sf9)
T2 sequence (P06493 whole entry): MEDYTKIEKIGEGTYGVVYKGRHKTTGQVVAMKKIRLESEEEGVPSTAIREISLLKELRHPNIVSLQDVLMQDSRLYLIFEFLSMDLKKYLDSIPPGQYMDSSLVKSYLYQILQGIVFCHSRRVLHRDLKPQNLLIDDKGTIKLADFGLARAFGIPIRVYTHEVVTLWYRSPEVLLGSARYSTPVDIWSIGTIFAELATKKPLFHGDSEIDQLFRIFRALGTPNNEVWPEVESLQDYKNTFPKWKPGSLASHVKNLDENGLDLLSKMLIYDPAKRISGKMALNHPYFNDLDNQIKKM
T2 sequence (P14635 whole entry partner): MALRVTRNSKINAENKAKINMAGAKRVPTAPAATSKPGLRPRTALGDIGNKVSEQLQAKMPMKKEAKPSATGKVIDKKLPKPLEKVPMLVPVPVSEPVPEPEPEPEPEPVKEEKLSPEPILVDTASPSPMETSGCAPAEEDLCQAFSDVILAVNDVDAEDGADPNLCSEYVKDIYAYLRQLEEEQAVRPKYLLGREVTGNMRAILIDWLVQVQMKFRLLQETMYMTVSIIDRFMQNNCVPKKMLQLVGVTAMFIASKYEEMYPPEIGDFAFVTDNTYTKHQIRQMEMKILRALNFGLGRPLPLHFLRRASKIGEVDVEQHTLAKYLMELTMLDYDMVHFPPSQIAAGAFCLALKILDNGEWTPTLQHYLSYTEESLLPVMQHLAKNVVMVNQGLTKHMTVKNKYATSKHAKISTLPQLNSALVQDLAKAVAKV
Description: Recombinant CDK1- and CycB-GST-fusion proteins, purified from baculovirus-infected insect cells (Sf9), were purchased from ProQinase GmbH, Freiburg. Histone IIIS, used as a kinase substrate, is available commercially from the Sigma Company.
The reaction was stopped by adding EDTA solution (250 mmol, pH 8.0, 14 μl/measuring point).
as §2

[3] = tested on: DU 145, hormone-independent human prostate cancer cells; test: Proliferation assay, DU145; type: cell-based; settings: DU-145, 96 h, 4 days incubation, crystal violet
Source text: as §1

CDK2/CycE = target: T3, CDK2/CycE (Homo sapiens, UniProt P24941); test: CDK2/CycE Kinase Assay; type: biochemical; settings: histone IIIS substrate, 33P-ATP, 15 minutes at 22° C.
T3 construct: GST; purchased ProQinase GmbH, Freiburg; host or cells: baculovirus-infected insect cells (Sf9)
Description: Recombinant CDK2- and CycE-GST-fusion proteins, purified from baculovirus-infected insect cells (Sf9), were purchased by ProQinase GmbH, Freiburg. Histone IIIs, which was used as a kinase substrate, was purchased by the Sigma Company.
CDK2/CycE (50 ng/measuring point) was incubated for 15 minutes at 22° C. in the presence of various concentrations of test substances (0 μm, as well as within the range of 0.01-100 μm) in assay buffer [50 mmol of tris/HCl, pH 8.0, 10 mmol of MgCl2, 0.1 mmol of Na ortho-vanadate, 1.0 mmol of dithiothreitol, 0.5 μm of adenosine triphosphate (ATP), 10 μg/measuring point of histone IIIS, 0.2 μCi/measuring point of ^33P-gamma ATP, 0.05% NP40, 12.5% dimethyl sulfoxide]. The reaction was stopped by adding EDTA solution (250 mmol, pH 8.0, 14 μl/measuring point).
as §2, with “^33P-ATP” for “33P-ATP”, “^33P” for “33P”

[4] = tested on: MCF7, hormone-independent human breast cancer cells; test: Proliferation assay, MCF7; type: cell-based; settings: MCF7, 96 h, 4 days incubation, crystal violet
Source text: as §1

[5] = poly-(Glu4Tyr) substrate, read-out: VEGF-R2 IC50

Row | SMILES | IC50 [1, 5] | IC50 [2] | IC50 (CDK1/CycB) | IC50 [3] | IC50 (CDK2/CycE) | IC50 [4] | IC50 (MaTu-ADR) | IC50 ([1]; VEGF-R2 IC50, poly-(Glu4Tyr) substrate)
1 | CCOC(=O)N=S(C)(=O)c1ccc(Nc2ncc(Br)c(N[C@H](COC)[C@@H](C)O)n2)cc1 (mixture of isomers) [Example 1.34, (RS)-S-{4-[(5-bromo-4-{[(1R,2R)-2-hydroxy-1-(methoxymethyl)propyl]amino}pyrimidin-2-yl)amino]phenyl}-N-(ethoxycarbonyl)-S-methyl sulfoximide] | 530 nM | – | – | – | 28 nM | 800 nM | – | –
2 | CN=S(C)(=O)c1ccc(Nc2ncc(Br)c(N[C@H](C)[C@@H](C)O)n2)cc1 (mixture of isomers) [Example 1.29, (RS)-S-[4-({5-bromo-4-[(1R,2R)-(2-hydroxy-1-methylpropyl)amino]pyrimidin-2-yl}amino)phenyl]-N,S-dimethyl-sulfoximide] | – | – | 7 nM | – | 4 nM | – | – | –
3 | C[C@@H](O)[C@@H](C)Nc1nc(Nc2ccc(S(C)(=N)=O)cc2)ncc1Br (single isomer, unassigned) [Example 1.2] | – | 30 nM | – | 40 nM | – | – | 40 nM | –
4 | CN=S(C)(=O)c1ccc(Nc2ncc(Br)c(N[C@H](C)[C@@H](C)O)n2)cc1 (mixture of isomers) [Example 1.30, (RS)-S-[4-({5-bromo-4-[(1R,2R)-(2-hydroxy-1-methylpropyl)amino]pyrimidin-2-yl}amino)phenyl]-N,S-dimethyl-sulfoximide] | – | – | 15 nM | – | 6 nM | – | – | –
5 | COc1cc(Nc2ncc(Br)c(N[C@H](C)[C@@H](C)O)n2)ccc1S(C)(=N)=O (single isomer, unassigned) [Example 1.26] | – | – | – | 70 nM | – | – | – | –
6 | C[C@H](CO)Nc1nc(Nc2ccc(S(C)(=O)=NS(=O)(=O)CC[Si](C)(C)C)cc2)ncc1Br (mixture of isomers) [Example 2.1, (RS)-S-[4-({5-bromo-4-[(R)-(2-hydroxy-1-methylethyl)amino]pyrimidin-2-yl}amino)phenyl]-S-methyl-N-[2-(trimethylsilyl)ethylsulfonyl]sulfoximide] | 74 nM | – | – | – | 390 nM | 900 nM | – | –
7 | C[C@H](CO)Nc1nc(Nc2ccc(S(=O)(CC3CC3)=NS(=O)(=O)CC[Si](C)(C)C)cc2)ncc1Br (mixture of isomers) [Example 1.7, (RS)-S-[4-({5-bromo-4-[(R)-(2-hydroxy-1-methylethyl)amino]pyrimidin-2-yl}amino)phenyl]-S-(cyclopropylmethyl)-N-[2-(trimethylsilyl)ethylsulfonyl]sulfoximide] | – | – | > 1000 nM | – | > 1000 nM | 1100 nM | – | 240 nM
8 | C[C@@H](Nc1nc(Nc2ccc(S(=N)(=O)CCO)cc2)ncc1Br)C(C)(C)O (single isomer, unassigned) [Example 1.14] | 69 nM | 100 nM | 7 nM | – | – | 90 nM | – | –
9 | COc1cc(Nc2ncc(Br)c(O[C@H](C)[C@@H](C)O)n2)ccc1S(C)(=N)=O (mixture of isomers) [Example 1.24, (RS)-S-[4-({5-bromo-4-[(1R,2R)-2-hydroxy-1-methylpropoxy]pyrimidin-2-yl}amino)-2-methoxyphenyl]-S-methyl sulfoximide] | 150 nM | 70 nM | 5 nM | 130 nM | – | < 100 nM | 80 nM | –

Further lines, with some results ahead:

Row | IC50 [1, 5] | IC50 [2] | IC50 (CDK1/CycB) | IC50 [3] | IC50 (CDK2/CycE) | IC50 [4] | SMILES | IC50 (MaTu-ADR) | IC50 ([1]; VEGF-R2 IC50, poly-(Glu4Tyr) substrate)
10 | 26 nM | 50 nM | 5 nM | 50 nM | – | – | CCS(=N)(=O)c1ccc(Nc2ncc(Br)c(N[C@H](C)[C@@H](C)O)n2)cc1 (mixture of isomers) [Example 1.51, (RS)-S-[4-({5-bromo-4-[(1R,2R)-(2-hydroxy-1-methylpropyl)amino]pyrimidin-2-yl}amino)phenyl]-S-ethyl sulfoximide] | 60 nM | –
11 | – | 70 nM | – | 90 nM | – | 80 nM | C[C@@H](Nc1nc(Nc2ccc(S(C)(=N)=O)cc2)ncc1Br)C(C)(C)O (mixture of isomers) [Example 1.41, (RS)-S-[4-({5-bromo-4-[(R)-(2-hydroxy-1,2-dimethylpropyl)amino]pyrimidin-2-yl}amino)phenyl]-S-methyl sulfoximide] | 70 nM | –
12 | – | – | 11 nM | – | 4 nM | – | COC[C@@H](Nc1nc(Nc2ccc(S(C)(=N)=O)cc2)ncc1Br)[C@@H](C)O (mixture of isomers) [Example 1.46, (RS)-S-{4-[(5-bromo-4-{[(1R,2R)-2-hydroxy-1-(methoxymethyl)-propyl]amino}pyrimidin-2-yl)amino]phenyl}-S-methyl sulfoximide] | – | –
13 | 89 nM | – | 200 nM | – | 63 nM | 900 nM | CCOc1nc(Nc2ccc(S(=N)(=O)CC)cc2)ncc1Br (racemic) [Example 1.63, (RS)-S-{4-[(5-bromo-4-ethoxypyrimidin-2-yl)amino]phenyl}-S-ethyl sulfoximide] | – | –
14 | – | – | 55 nM | – | 8 nM | 1000 nM | CC(C)(O)CSc1nc(Nc2ccc(S(C)(=N)=O)cc2)ncc1Br (racemic) [Example 3.9, (RS)-S-[4-({5-bromo-4-[(2-hydroxy-2-methyl-propyl)sulfanyl]pyrimidin-2-yl}amino)phenyl]-S-methyl sulfoximide] | – | –
15 | 270 nM | 300 nM | – | 400 nM | – | – | CCS(=N)(=O)c1ccc(Nc2ncc(Br)c(N[C@H](COC)[C@@H](C)O)n2)cc1 (mixture of isomers) [Example 1.48, (RS)-S-{4-[(5-bromo-4-{[(1R,2R)-2-hydroxy-1-(methoxymethyl)-propyl]amino}pyrimidin-2-yl)amino]phenyl}-S-ethyl sulfoximide] | – | –
16 | – | 400 nM | 160 nM | 190 nM | – | 300 nM | CS(=N)(=O)c1ccc(Nc2ncc(Br)c(Nc3ccccc3)n2)cc1 (racemic) [Example 2.3, (RS)-S-(4-{[5-bromo-4-(phenylamino)pyrimidin-2-yl]amino}phenyl)-S-methyl sulfoximide] | 120 nM | –

Reference: patent publication US7338958B2, “Sulfoximine-substituted pyrimidines as CDK-and/or VEGF inhibitors, their production and use as pharmaceutical agents” (Schering AG, priority 2003, dated 2008)
